Reference: patent US11660280B2, “Treatment of drug resistant gliomas” (OKLAHOMA MEDICAL RESEARCH FOUNDATION, priority 2017, dated 2023)

Experiments:
[1] = test system: HIF-1α; assay: RT-PCR gene-fold changes in human GBM cells; format: cell-based
Method: Quantification of mRNA by real-time quantitative RT-PCR for HIF-1a, MPG and MGMT. Total RNA from all cell lines with all treatments was purified with an RNeasy Mini Kit (Qiagen), and quantified by spectrophotometry (Nanodrop). cDNA was synthesized using SuperScript IV Reverse Transcriptase Kit (Invitrogen).
Target gene mRNA was amplified and measured by Bio-Rad CFX96™ Real Time System. Gene expression was determined using the SYBR Select Master Mix (Applied Biosystems). […] The reaction is characterized by the point during cycling when amplification of PCR products is first detected, rather than the amount of PCR product accumulated after a fixed number of cycles. The higher the starting quantity of the template, the earlier a significant increase in fluorescence is observed. The threshold cycle is defined as the fractional cycle number at which fluorescence passes a fixed threshold above the baseline. Fluorescence data were converted into cycle threshold measurements exported to Microsoft Excel. Glyceraldehyde-3-phosphatase dehydrogenase (GAPDH) mRNA expression levels were used as the quantitative internal control. For precise quantification, the mRNA expression level of each sample was normalized using the expression of the GAPDH gene.
All primers were synthesized by Integrated DNA Technologies. The primers used were: […]

[2] = test system: MPG; assay: ELISA protein level in human GBM cell lysates; format: cell-based
Method: (§1) ELISA for HIF-1a, MPG and MGMT. Protein expressions were assessed in all six glioma cell lines for all four groups of treatment (cell alone, cells with TMZ, cells with OKN, cells with combined OKN and TMZ). Cells were lysed before assaying. In brief, cells were washed by cold PBS gently, and then detached with trypsin, and collected by centrifugation at 1,000×g for 5 minutes. Then, cells were washed three times in cold PBS, then suspended in fresh lysis buffer. Lysates were centrifuged at 1,500×g for 10 minutes at 2-8° C. to remove cellular debris.
(§2) The assay is based on the sandwich ELISA principle. Each well of the supplied microtiter plate has been pre-coated with a target specific capture antibody. Standards or samples are added to the wells and the target antigen binds to the capture antibody. Unbound Standard or sample is washed away. A biotin-conjugated detection antibody is then added which binds to the captured antigen. Unbound detection antibody is washed away. An Avidin-Horseradish Peroxidase (HRP) conjugate is then added which binds to the biotin. Unbound Avidin-HRP conjugate is washed away. A TMB substrate is then added which reacts with the HRP enzyme resulting in color development. A sulfuric acid stop solution is added to terminate color development reaction and then the optical density (OD) of the well is measured at a wavelength of 450 nm±2 nm. The OD of an unknown sample can then be compared to an OD standard curve generated using known antigen concentrations in order to determine its antigen concentration.
(§3) The antigen concentration determined from ELISA was then normalized to the total protein concentration of each cell lysate in order to have comparison between groups. ELISA Kits for N-Methylpurine DNA Glycosylase (MPG) and for Hypoxia Inducible Factor 1 Alpha (HIF1a) were purchased from CLOUD-CLONE CORP.(CCC) and for Human MGMT from LifeSpan Biosciences, Inc.

[3] = test system: MGMT; assay: ELISA protein level in human GBM cell lysates; format: cell-based
Method: as §1, §2, §3

[4] = test system: HIF-1α; assay: ELISA protein level in human GBM cell lysates; format: cell-based
Method: as §1, §2, §3

[5] = test system: rat F98 gliomas; assay: Microarray analysis of OKN-007-treated vs untreated rat F98 gliomas; format: in vivo
Method: Mice and Treatments. Animal studies were conducted in accordance to the OMRF IACUC (Institutional Animal Care and Use Committee) policies, which follow NIH guidelines. For the F98 rat glioma cell implantation model, F98 cells (10^5 in 10-μ1 volume) were intracerebrally implanted with a stereotaxic device (2 mm lateral and 2 mm anterior to the bregma, and at a 3 mm depth) in a total of 15 Fischer 344 rats (male 200-250 gm). The animals were divided into two groups once tumors reached 10-20 mm^3 in volume (as determined by MRI): OKN-007 treated (n=8) and untreated (UT) (n=7) groups. Rats were treated until tumors reached 200-250 mm^3 in volume or for a total of 4-6 weeks. For the G55 GBM cell implantation model, two-month-old male nude mice (Hsd:Athymic Nude-Foxnlnu mice; Harlan Inc., Indianapolis, IN) were implanted intracerebrally with human G55 xenograft cells (1×10^6) per mL suspended in 4 μL in cell culture media of 1% agarose solution. Once tumors reached 10-15 mm^3 (determined via MRI), mice were either treated daily with OKN-007 in the drinking water (150 mg/kg; 0.20% w/v for a 20 g mouse), or every 3 days with TMZ (30 mg/kg). OKN-007 was dissolved in water and made fresh every 2 days. Water bottles were weighed, and the amount of OKN-007 consumed per mouse was determined. […] The average intake of OKN-007 was approximately 140-150 mg/kg/day/mouse. TMZ was dissolved in 5% DMSO and 5% solutol-15 in sterile saline and administered via gavage. Mice were treated until the tumors reached 100-150 mm^3 or for a total of 4-6 weeks. All groups were stratified to ensure that tumor sizes were similar before initiation of treatment.
RNA isolation and preparation. For the rat F98 glioma study, all rats were euthanized after the last MRI examination. The brain of each animal was removed, and snap frozen in liquid nitrogen, before storage in a −80° C. freezer. Total RNA from all tumor tissues from all treatment groups was purified with an RNeasy Mini Kit (Qiagen), and quantified by spectrophotometry (Nanodrop). cDNA was synthesized using SuperScript IV Reverse Transcriptase Kit (Invitrogen).
Microarray analysis. The Illumina TotalPrepTM RNA Amplification Kit was used for labeling cRNA (Ambion, Austin, Tex.), as previously described (Griffins et al., 2009). Four×four treated/untreated samples were profiled using Affymetrix RaGene-1_0-st-v1 microarrays. Exon-level-summarized measures were quantile-normalized and tested for differential expression using Significance Analysis of Microarrays (SAM, [PMID: 11309499]) at a false discovery rate (FDR) <40% and […]. Functional enrichment analysis was performed using Ingenuity Pathways Analysis (IPA) (Ingenuity® Systems, world-wide-web at ingenuity.com).

[6] = microarray, F98 gliomas, OKN treatment vs UT

CC(C)(C)[N+]([O-])=Cc1ccc(S(=O)(=O)O)cc1S(=O)(=O)O [OKN-007, 2,4-disulfonyl phenyl tert-butyl nitrone]
RT-PCR gene-fold change HIF-1α ([1]; G55 cells (TMZ-resistant), UT 1.00): 1.20 fold | RT-PCR gene-fold change HIF-1α ([1]; LN18 cells (TMZ-resistant), UT 1.03): 1.35 fold | RT-PCR gene-fold change HIF-1α ([1]; LN229 cells (TMZ-sensitive), UT 1.00): 1.09 fold | RT-PCR gene-fold change HIF-1α ([1]; T98 cells (TMZ-resistant), UT 1.00): 0.58 fold | RT-PCR gene-fold change HIF-1α ([1]; U138 cells (TMZ-resistant), UT 1.00): 2.93 fold | RT-PCR gene-fold change HIF-1α ([1]; U251 cells (TMZ-sensitive), UT 1.00): 1.59 fold | ELISA protein level MPG ([2]; G55 cells, UT 1.15): 1.41 ng/mg cell lysate | ELISA protein level MPG ([2]; LN18 cells, UT 2.18): 2.38 ng/mg cell lysate | ELISA protein level MPG ([2]; LN229 cells, UT 2.34): 1.88 ng/mg cell lysate | ELISA protein level MPG ([2]; T98 cells, UT 3.04): 3.61 ng/mg cell lysate | ELISA protein level MPG ([2]; U138 cells, UT 1.30): 1.22 ng/mg cell lysate | ELISA protein level MPG ([2]; U251 cells, UT 2.70): 2.77 ng/mg cell lysate | ELISA protein level MGMT ([3]; G55 cells, UT 0.37): 0.31 ng/mg cell lysate | ELISA protein level MGMT ([3]; LN18 cells, UT 1.23): 0.98 ng/mg cell lysate | ELISA protein level MGMT ([3]; LN229 cells, UT 0.67): 0.69 ng/mg cell lysate | ELISA protein level MGMT ([3]; T98 cells, UT 0.62): 0.84 ng/mg cell lysate | ELISA protein level MGMT ([3]; U138 cells, UT 0.77): 0.75 ng/mg cell lysate | ELISA protein level MGMT ([3]; U251 cells, UT 0.92): 0.91 ng/mg cell lysate | ELISA protein level HIF-1α ([4]; G55 cells, UT 0.14): 0.19 ng/mg cell lysate | ELISA protein level HIF-1α ([4]; LN18 cells, UT 0 76): 0.92 ng/mg cell lysate | ELISA protein level HIF-1α ([4]; LN229 cells, UT 0.68): 0.66 ng/mg cell lysate | ELISA protein level HIF-1α ([4]; T98 cells, UT 0.42): 0.58 ng/mg cell lysate | ELISA protein level HIF-1α ([4]; U138 cells, UT 0.40): 0.33 ng/mg cell lysate | ELISA protein level HIF-1α ([4]; U251 cells, UT 0.30): 0.61 ng/mg cell lysate | number of down-regulated genes with TGFβ1 as master (upstream) regulator ([5]; Upstream Regulator Analysis, IPA, rat F98 treated gliomas vs untreated tumors): 57 genes | TGFβ1 downregulation ([5]; microarray, F98 gliomas treated with OKN-007 vs UT): ~2 fold | number of genes upregulated [5, 6]: 3 genes | number of genes with at least one exon significantly downregulated [5, 6]: 384 genes | decrease in gene expression for LBP ([5]; microarray, rat F98 glioma model, treated vs untreated tumors): > 2 fold
